The values below come from publication PMC9072010, “Synthesis and bioevaluation of thienopyrimidines bearing a pyrazoline unit as selective PI3Kα inhibitors” (RSC Advances, 2019).

The target of assay [1] is mTOR (Homo sapiens, UniProt P42345). Kind of assay: Kinase-Glo Luminescent Kinase Assay, mTOR. The assay is classed as biochemical. Conditions: average of two separate determinations.
Assay [2] has as its system HepG2 cancer cell lines. Kind of assay: MTT antiproliferative assay, HepG2. Format: cell-based, human. Conditions: Homo sapiens, HepG2, Table 2, average of two separate determinations.
Assay [3] deals with MCF-7 cancer cell lines. Kind of assay: MTT antiproliferative assay, MCF-7. Conditions: Homo sapiens, MCF7, Table 2, average of two separate determinations. Format: cell-based, human.
Assay [4] concerns A549 cancer cell lines. Kind of assay: MTT antiproliferative assay, A549. The assay is classed as cell-based, human.
Assay [5] concerns the target PI3Kα (Homo sapiens, UniProt P42336). Kind of assay: Kinase-Glo Luminescent Kinase Assay, PI3Kα. Format: biochemical. Conditions: average of two separate determinations. As for the experimental part:
The experiment was conducted according to the method reported by our research group.[17]

For assay [6], the system named is A549 cells. Kind of assay: Annexin V-FITC/PI double staining by flow cytometry. Format: cell-based, human.
Assay [7] deals with A549 cancer cell lines. Kind of assay: Acridine orange (AO) single staining. Format: cell-based, human. The note with it: A549, fluorescence microscopy, Fig. 4. On the procedure: In order to investigate whether the target compound 13f could induce the apoptosis of A549 cancer cell lines, acridine orange (AO) staining assay was carried out. […] But in the test group (Fig. 4b), the cell shape was abnormal with cell shrinkage, chromatin condensation after compound 13f acted on the A549 cells.
The cancer cell apoptotic of target compound 13f were evaluated with A549 cancer cell lines by acridine orange single staining. The experiment was conducted according to the method reported by our research group.[18]

Sequence of PI3Kα (P42336 whole entry): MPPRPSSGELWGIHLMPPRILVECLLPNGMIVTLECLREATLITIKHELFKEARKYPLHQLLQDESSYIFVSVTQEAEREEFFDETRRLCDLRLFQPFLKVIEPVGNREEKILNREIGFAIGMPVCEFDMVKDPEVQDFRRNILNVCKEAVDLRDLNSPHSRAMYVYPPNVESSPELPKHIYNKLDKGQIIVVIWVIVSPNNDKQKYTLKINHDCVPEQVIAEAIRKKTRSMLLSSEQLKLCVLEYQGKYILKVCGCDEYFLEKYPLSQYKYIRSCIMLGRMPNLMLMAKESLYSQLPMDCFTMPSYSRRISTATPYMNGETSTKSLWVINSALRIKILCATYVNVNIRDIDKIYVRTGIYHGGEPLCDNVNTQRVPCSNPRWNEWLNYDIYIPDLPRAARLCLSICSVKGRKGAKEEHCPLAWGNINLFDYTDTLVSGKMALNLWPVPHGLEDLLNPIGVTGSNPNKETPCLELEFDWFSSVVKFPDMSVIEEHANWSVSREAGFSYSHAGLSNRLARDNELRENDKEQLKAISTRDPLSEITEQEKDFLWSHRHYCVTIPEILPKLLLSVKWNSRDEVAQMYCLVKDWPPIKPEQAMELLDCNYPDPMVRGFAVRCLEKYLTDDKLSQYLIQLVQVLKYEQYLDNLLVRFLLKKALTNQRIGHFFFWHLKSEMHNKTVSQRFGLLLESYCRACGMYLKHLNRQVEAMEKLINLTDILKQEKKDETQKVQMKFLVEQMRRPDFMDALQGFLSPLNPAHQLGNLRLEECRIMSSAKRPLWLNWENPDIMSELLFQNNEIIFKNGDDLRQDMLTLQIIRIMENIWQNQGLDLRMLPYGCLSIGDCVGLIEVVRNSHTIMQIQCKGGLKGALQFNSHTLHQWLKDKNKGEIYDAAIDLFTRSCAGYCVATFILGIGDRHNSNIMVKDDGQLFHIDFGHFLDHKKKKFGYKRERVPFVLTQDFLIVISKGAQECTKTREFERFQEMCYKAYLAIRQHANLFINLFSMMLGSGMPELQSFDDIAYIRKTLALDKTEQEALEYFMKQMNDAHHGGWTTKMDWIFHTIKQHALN
Sequence of PI3Kα (P27986 whole entry partner): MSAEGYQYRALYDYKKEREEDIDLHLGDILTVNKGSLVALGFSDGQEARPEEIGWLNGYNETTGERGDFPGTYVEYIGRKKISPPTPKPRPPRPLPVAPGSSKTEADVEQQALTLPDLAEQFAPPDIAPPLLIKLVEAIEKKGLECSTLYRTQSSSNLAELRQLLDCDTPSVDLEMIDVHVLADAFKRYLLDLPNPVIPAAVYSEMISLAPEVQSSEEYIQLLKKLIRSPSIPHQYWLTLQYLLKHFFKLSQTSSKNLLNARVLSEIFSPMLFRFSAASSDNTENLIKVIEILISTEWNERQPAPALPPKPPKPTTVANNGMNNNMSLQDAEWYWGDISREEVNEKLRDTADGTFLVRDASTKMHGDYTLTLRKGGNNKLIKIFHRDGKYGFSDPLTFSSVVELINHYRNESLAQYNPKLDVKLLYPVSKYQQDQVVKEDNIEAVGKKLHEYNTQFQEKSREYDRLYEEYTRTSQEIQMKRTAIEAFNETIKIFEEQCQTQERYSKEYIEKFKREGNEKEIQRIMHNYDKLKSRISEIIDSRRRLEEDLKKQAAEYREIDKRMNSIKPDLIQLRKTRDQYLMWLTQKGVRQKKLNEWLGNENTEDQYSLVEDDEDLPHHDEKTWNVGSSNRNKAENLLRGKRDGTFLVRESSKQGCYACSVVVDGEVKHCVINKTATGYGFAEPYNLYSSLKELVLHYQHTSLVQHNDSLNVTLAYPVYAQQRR

Turning to `COc1ccc(C2CC(c3ccccc3)=NN2c2nc(N(C)CCN(C)C)c3ccsc3n2)cc1` (stereo not shown) [Compound 13f, N ^1-(2-(5-(4-Methoxyphenyl)-3-phenyl-4,5-dihydro-1H-pyrazol-1-yl)thieno[2,3-d]pyrimidin-4-yl)-N^1,N^2,N^2-trimethylethane-1,2-diamine], the IC50 is > 10 µM in assay [1]; 2.08 ± 0.36 µM in assay [2]; 2.88 ± 0.43 µM in assay [3]; 2.84 ± 0.09 µM in assay [4] (Homo sapiens, A549, Table 2, average of two separate determinations); 0.92 ± 0.14 µM in assay [5]. The “inhibition of proliferation of A549 cancer cell lines (dose and time dependence)” value in assay [4] (several concentrations and exposure times, Fig. 3) is “dose-dependent and time-dependent”. The compound further displayed an early apoptotic cells in assay [6] (A549, 1.6 μM, 24 h) of 9.14%. In assay [6] (A549, 1.6 μM, 24 h), this compound displayed a late apoptotic cells of 7.68%. Also, the “induction of apoptosis (Annexin V-FITC/PI)” value in assay [6] (A549, 0.2-1.6 μM) is “induce apoptosis in a concentration-dependent manner”. Also, the “induction of apoptosis (cell morphology, AO staining)” value in assay [7] is “could induce apoptosis”.
